Test results as given in patent publication US20120220581A1, “IMIDAZO[1,2-b]PYRIDAZINE DERIVATIVES AND THEIR USE AS PDE10 INHIBITORS” (Janssen-Cilag, S.A., priority 2009, published 2012).
Read-outs that look alike come from different tables or passages of the source.

What was measured:
[1] = molecular target: T1, Rat recombinant PDE10A (rPDE10A2) (Rattus norvegicus, UniProt Q9QYJ6); test: In vitro assay PDE10A (SPA, 3H-cAMP); type: biochemical
T1 construct: inferred from the Ni metal chelate purification; made in house; host or cells: Sf9 insect cells (baculovirus)
T1 sequence (Q9QYJ6 1-794): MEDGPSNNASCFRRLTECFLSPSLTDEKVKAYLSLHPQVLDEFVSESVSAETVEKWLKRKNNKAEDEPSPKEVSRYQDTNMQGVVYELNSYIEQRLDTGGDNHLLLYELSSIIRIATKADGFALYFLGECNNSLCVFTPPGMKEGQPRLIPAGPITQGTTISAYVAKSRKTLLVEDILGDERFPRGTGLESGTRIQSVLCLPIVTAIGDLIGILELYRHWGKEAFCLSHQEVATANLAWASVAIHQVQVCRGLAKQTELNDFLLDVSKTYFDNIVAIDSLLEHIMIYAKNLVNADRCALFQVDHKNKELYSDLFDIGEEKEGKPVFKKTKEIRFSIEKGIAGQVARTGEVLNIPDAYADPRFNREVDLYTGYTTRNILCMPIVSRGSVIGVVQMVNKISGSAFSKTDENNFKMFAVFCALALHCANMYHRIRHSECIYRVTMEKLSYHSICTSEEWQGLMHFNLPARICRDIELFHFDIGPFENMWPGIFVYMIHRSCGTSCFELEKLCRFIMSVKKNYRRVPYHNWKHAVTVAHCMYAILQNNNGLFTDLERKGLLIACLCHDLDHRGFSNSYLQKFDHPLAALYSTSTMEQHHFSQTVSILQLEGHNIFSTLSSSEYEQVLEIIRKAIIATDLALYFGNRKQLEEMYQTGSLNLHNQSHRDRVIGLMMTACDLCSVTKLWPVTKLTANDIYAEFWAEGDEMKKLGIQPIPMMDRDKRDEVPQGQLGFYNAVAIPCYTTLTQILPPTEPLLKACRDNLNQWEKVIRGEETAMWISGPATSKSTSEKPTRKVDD
How it was run: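 Scintillation proximity read-out (cpm) of 3H-cAMP hydrolysis after 60 min at room temperature, with enzyme-free blanks and 1% DMSO controls. Enzyme was Sf9-expressed, Ni-sepharose-purified rat rPDE10A2; substrate 60 nM cAMP with tracer, buffer Tris pH 7.8 containing MgCl2 and EGTA.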

[2] = molecular target: other members of the PDE family (Homo sapiens, UniProt O00408); test: In vitro PDE selectivity assay (SPA), other members of the PDE family (protocols in Table A); type: biochemical; conditions: hPDE2A; read-out: PDE 2A (expressed as pIC50) (converted)
Chain of other members of the PDE family (O00408 whole entry): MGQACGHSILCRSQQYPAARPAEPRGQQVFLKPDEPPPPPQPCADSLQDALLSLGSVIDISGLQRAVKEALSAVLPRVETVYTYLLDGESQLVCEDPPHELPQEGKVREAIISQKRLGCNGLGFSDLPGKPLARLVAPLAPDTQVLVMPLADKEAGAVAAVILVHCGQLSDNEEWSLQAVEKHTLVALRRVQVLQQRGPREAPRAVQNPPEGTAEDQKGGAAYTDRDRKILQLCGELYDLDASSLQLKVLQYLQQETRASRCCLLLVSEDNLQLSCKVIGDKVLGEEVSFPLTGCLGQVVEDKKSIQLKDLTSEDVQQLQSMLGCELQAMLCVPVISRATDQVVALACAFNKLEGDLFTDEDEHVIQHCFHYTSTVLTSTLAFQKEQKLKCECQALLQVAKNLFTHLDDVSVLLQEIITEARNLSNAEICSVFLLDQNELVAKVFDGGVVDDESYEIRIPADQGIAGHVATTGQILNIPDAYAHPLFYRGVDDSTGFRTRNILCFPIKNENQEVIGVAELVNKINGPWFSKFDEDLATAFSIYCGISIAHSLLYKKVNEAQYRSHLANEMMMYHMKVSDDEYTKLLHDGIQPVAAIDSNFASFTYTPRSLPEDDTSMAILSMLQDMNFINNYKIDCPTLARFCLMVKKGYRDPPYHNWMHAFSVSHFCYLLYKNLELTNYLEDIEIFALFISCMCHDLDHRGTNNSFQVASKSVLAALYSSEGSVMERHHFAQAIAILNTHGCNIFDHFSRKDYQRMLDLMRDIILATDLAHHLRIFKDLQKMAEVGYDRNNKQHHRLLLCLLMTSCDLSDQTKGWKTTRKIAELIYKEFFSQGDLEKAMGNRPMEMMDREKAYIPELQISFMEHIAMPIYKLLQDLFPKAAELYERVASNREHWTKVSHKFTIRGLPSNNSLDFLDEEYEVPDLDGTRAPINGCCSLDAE
Procedure: Rat recombinant PDE10A (rPDE10A2) was expressed in Sf9 cells using a recombinant rPDE10A baculovirus construct. Cells were harvested after 48 h of infection and the rPDE10A protein was purified by metal chelate chromatography on Ni-sepharose 6FF. Tested compounds were dissolved and diluted in 100% DMSO to a concentration 100 fold of the final concentration in the assay. Compound dilutions (0.4 μl) were added in 384 well plates to 20 μl of incubation buffer (50 mM Tris pH 7.8, 8.3 mM MgCl2, 1.7 mM EGTA). 10 μl of rPDE10A enzyme in incubation buffer was added and the reaction was started by addition of 10 μl substrate to a final concentration of 60 nM cAMP and 0.008 μCi ^3H-cAMP. The reaction was incubated for 60 minutes at room temperature. After incubation, the reaction was stopped with 20 μl of stop solution consisting of 17.8 mg/ml PDE SPA (scintillation proximity assay) beads. After sedimentation of the beads during 30 minutes the radioactivity was measured in a Perkin Elmer Topcount scintillation counter and results were expressed as cpm. For blanc values the enzyme was omitted from the reaction and replaced by incubation buffer. Control values were obtained by addition of a final concentration of 1% DMSO instead of compound. The same assay principle is applied for the measurement of the affinity of the compound for other members of the PDE family with appropriate modifications in incubation buffer, substrate concentration, incubation time and stop solution. An overview of the different protocols is presented in table A. A best fit curve is fitted by a minimum sum of squares method to the plot of % of control value substracted with blanc value versus compound concentration and the half maximal inhibitory concentration (IC50) value is derived from this curve.
The compounds of the invention are generally selective for PDE10 compared to other PDEs and there are a few that also have affinity for PDE1B1, 4D3 and 5A3.

[3] = test system: apomorphine-induced stereotypy in rats; test: Apomorphine-induced stereotypy in rats (APO); type: in vivo; conditions: Rattus norvegicus
Procedure: Apomorphine (1.0 mg/kg, i.v.)-induced stereotypy (compulsive sniffing, licking, chewing) was scored every 5 min over the first hour after injection of apomorphine, following a 1 hour interval pre-treatment with the test compound. The score system was: (3) pronounced, (2) moderate, (1) slight, and (0) absent.

[4] = Table 4 in vitro selectivity, read-out: PDE 10A2 (expressed as pIC50) (converted)
[5] = pIC50 corresponds to the −log IC50 expressed in mol/L, read-out: PDE10A2 pIC50 (converted)
[6] = po, * compound not soluble, tested orally as a suspension, ≧: active in 30% of the animals at the indicated dose, ≦: active in 60%
[7] = dose at which 50% of the tested animals show the effect, ≧: active in 30% of the animals at the indicated dose, ≦: active in 60%
[8] = n.d.: found not active at threshold dose 2.5 mg/kg or 10 mg/kg (a), not further tested

| IC50 [1, 4] | IC50 [1, 5] | IC50 [2] | SMILES | ED50 [3, 6] | ED50 [3, 7] | ED50 [3, 8] |
| --- | --- | --- | --- | --- | --- | --- |
| 380 nM | 380 nM | > 10000 nM | Cc1nc2c(N3CCOCC3)cc(C3CC3)nn2c1-c1ccc(N2CCOCC2)nc1 [compound 94, 6-cyclopropyl-2-methyl-8-(4-morpholinyl)-3-[6-(4-morpholinyl)-3-pyridinyl]-imidazo[1,2-b]pyridazine] |  |  |  |
| 324 nM | 324 nM | > 10000 nM | c1cc(N2CCOCC2)c2ncc(-c3ccc(N4CCOCC4)nc3)n2n1 [compound 144, 8-(4-morpholinyl)-3-[6-(4-morpholinyl)-3-pyridinyl]-imidazo[1,2-b]pyridazine] |  |  |  |
| 589 nM | 589 nM | > 10000 nM | COCCOc1ccc(-c2c(C3CC3)nc3c(N4CCOCC4)cc(C)nn23)cn1 [compound 74, 2-cyclopropyl-3-[6-(2-methoxyethoxy)-3-pyridinyl]-6-methyl-8-(4-morpholinyl)-imidazo[1,2-b]pyridazine] |  |  |  |
| 158 nM | 158 nM | > 10000 nM | Cc1cc(N2CCOCC2)c2nc(C)c(-c3ccc(N4CCOCC4)nc3)n2n1 [compound 68, 2,6-dimethyl-8-(4-morpholinyl)-3-[6-(4-morpholinyl)-3-pyridinyl]-imidazo[1,2-b]pyridazine] | ≥ 2.5 mg/kg |  |  |
| 372 nM | 372 nM | > 10000 nM | CCc1ccc(-c2c(C3CC3)nc3c(N4CCOCC4)cc(C)nn23)cn1 [compound 84, 2-cyclopropyl-3-(6-ethyl-3-pyridinyl)-6-methyl-8-(4-morpholinyl)-imidazo[1,2-b]pyridazine] |  |  |  |
| 83.2 nM | 83.2 nM | 2290 nM | Cc1cc(-c2ccncc2)c2nc(C3CC3)c(-c3ccc(N4CCOCC4)nc3)n2n1 [compound 71, 2-cyclopropyl-6-methyl-3-[6-(4-morpholinyl)-3-pyridinyl]-8-(4-pyridinyl)-imidazo[1,2-b]pyridazine] | ≥ 2.5 mg/kg |  |  |
| 20.9 nM | 20.9 nM | > 10000 nM | CC(C)(O)Cc1ccc(-c2c(C3CC3)nc3c(N4CCOCC4)ccnn23)cn1 [compound 54, 5-[2-cyclopropyl-8-(4-morpholinyl)imidazo[1,2-b]pyridazin-3-yl]-α,α-dimethyl-2-pyridineethanol] |  | 1.2 mg/kg |  |
| 331 nM | 331 nM | > 10000 nM | Cc1cc(N2CCOCC2)c2nc(C)c(-c3ccc(C4CC4)nc3)n2n1 [compound 110, 3-(6-cyclopropyl-3-pyridinyl)-2,6-dimethyl-8-(4-morpholinyl)-imidazo[1,2-b]pyridazine] |  |  |  |
| 525 nM | 525 nM | > 10000 nM | COCCn1cc(-c2c(C)nc3c(N4CCCC4)ccnn23)cn1 [compound 136, 3-[1-(2-methoxyethyl)-1H-pyrazol-4-yl]-2-methyl-8-(1-pyrrolidinyl)-imidazo[1,2-b]pyridazine] |  |  |  |
| 661 nM | 661 nM | > 10000 nM | COCCc1ccc(-c2c(C3CC3)nc3c(N4CCOCC4)cc(C(F)(F)F)nn23)cn1 [compound 85, 2-cyclopropyl-3-[6-(2-methoxyethyl)-3-pyridinyl]-8-(4-morpholinyl)-6-(trifluoromethyl)-imidazo[1,2-b]pyridazine] |  |  |  |
| 2630 nM | 2630 nM | > 10000 nM | COCCn1cc(-c2c(C)nc3c(-c4ccncc4)cc(C(F)(F)F)nn23)cn1 [compound 129, 3-[1-(2-methoxyethyl)-1H-pyrazol-4-yl]-2-methyl-8-(4-pyridinyl)-6-(trifluoromethyl)-imidazo[1,2-b]pyridazine] |  |  |  |
| 447 nM | 447 nM | > 10000 nM | Cc1cc(N2CCOCC2)c2nc(C3CC3)c(-c3ccc(N4CCOCC4)nc3)n2n1 [compound 75, 2-cyclopropyl-6-methyl-8-(4-morpholinyl)-3-[6-(4-morpholinyl)-3-pyridinyl]-imidazo[1,2-b]pyridazine] |  |  |  |
| 724 nM | 724 nM | > 10000 nM | Cc1cc(N2CCOCC2)c2nc(C3CC3)c(-c3ccc(N4CCNCC4)nc3)n2n1 [compound 100, 2-cyclopropyl-6-methyl-8-(4-morpholinyl)-3-[6-(1-piperazinyl)-3-pyridinyl]-imidazo[1,2-b]pyridazine] |  |  |  |
| 123 nM | 123 nM | 1050 nM | COCCOc1ccc(-c2c(C3CC3)nc3c(-c4ccncc4)cc(C)nn23)cn1 [compound 72, 2-cyclopropyl-3-[6-(2-methoxyethoxy)-3-pyridinyl]-6-methyl-8-(4-pyridinyl)-imidazo[1,2-b]pyridazine] | ≥ 2.5 mg/kg |  |  |
| 427 nM | 427 nM | > 10000 nM | COCCc1ccc(-c2cnc3c(-c4ccncc4)ccnn23)cn1 [compound 57, 3-[6-(2-methoxyethyl)-3-pyridinyl]-8-(4-pyridinyl)-imidazo[1,2-b]pyridazine] |  |  |  |
|  | 46.8 nM |  | COCCCc1ccc(-c2c(C)nc3c(N4CCOCC4)ccnn23)cn1 [compound 2, 3-[6-(3-methoxypropyl)-3-pyridinyl]-2-methyl-8-(4-morpholinyl)-imidazo[1,2-b]pyridazine] |  |  | > 2.5 mg/kg |
| 427 nM | 427 nM | 8130 nM | c1cc(N2CCOCC2)c2ncc(-c3ccc(C4CC4)nc3)n2n1 [compound 112, 3-(6-cyclopropyl-3-pyridinyl)-8-(4-morpholinyl)-imidazo[1,2-b]pyridazine] |  |  |  |
|  | 117 nM |  | CO[C@@H]1CCN(c2ccc(-c3c(C)nc4c(N5CCOCC5)ccnn34)cn2)C1 [compound 34, 3-[6-[(3R)-3-methoxy-1-pyrrolidinyl]-3-pyridinyl]-2-methyl-8-(4-morpholinyl)-imidazo[1,2-b]pyridazine] |  |  | > 2.5 mg/kg |
|  | 263 nM |  | Cc1cc(N2CCOCC2)c2nc(C3CC3)c(-c3ccc(C4CCOCC4)nc3)n2n1 [compound 79, 2-cyclopropyl-6-methyl-8-(4-morpholinyl)-3-[6-(tetrahydro-2H-pyran-4-yl)-3-pyridinyl]-imidazo[1,2-b]pyridazine] |  |  | > 2.5 mg/kg |
|  | 155 nM |  | CCc1ccc(-c2c(C)nc3c(N4CCOCC4)cc(C)nn23)cn1 [compound 108, 3-(6-ethyl-3-pyridinyl)-2,6-dimethyl-8-(4-morpholinyl)-imidazo[1,2-b]pyridazine] |  |  | > 2.5 mg/kg |
| 14.5 nM | 14.5 nM | 6920 nM | COC(C)(C)Cc1ccc(-c2c(C3CC3)nc3c(-c4ccncc4)ccnn23)cn1 [compound 50, 2-cyclopropyl-3-[6-(2-methoxy-2-methylpropyl)-3-pyridinyl]-8-(4-pyridinyl)-imidazo[1,2-b]pyridazine] |  | 0.8 mg/kg |  |
